According to PMC8962522, “Direct interaction of TrkA/CD44v3 is essential for NGF-promoted aggressiveness of breast cancer cells” (Journal of Experimental & Clinical Cancer Research : CR, 2022):
“Also recorded” adds a separate entry of the source.

Legend:
[1] = system: CD44v3 in MDA-MB-231 cells; experiment: Flow cytometry, plasma membrane CD44v3; format: cell-based; settings: MDA-MB-231, flow cytometry
Description: The CD44v3- and CD44v6-containing isoforms expressing respectively exon 8 and 11(Fig. 1A) can interact with growth factor receptors. Using COS-7 cells with low CD44 and TrkA expression (Supplementary Fig. 1A-D), we differentially expressed TrkA and CD44s or a CD44 variant, either CD44v3 or CD44v6 (Fig. 1B, supplementary Fig. 2). […] Additionally, we evaluated the expression of TrkA and CD44v3 at the membrane level or in cells by immunofluorescence in MDA-MB-231 cells.
Supplementary file 13046_2022_2314_MOESM3_ESM.pdf: Additional file 3: Supplementary Figure 1. Validation of the ectopic expression of CD44 and/or TrkA in COS-7 cells. The expression of all CD44 isoforms (A), CD44 variant 3 (B), CD44 variant 6 (C) and TrkA ([…]; D) was evaluated by RT–qPCR (normalized using PUM-1). No expression of CD44, CD44 variants [3 or 6] or TrkA was detected in COS-7 cells (A-D) compared with that in cells transfected with the expression plasmid carrying each protein. […] Quantification of the PLA results was performed using ImageJ software (30 randomly chosen fields per condition of three different experiments). […] CD44v3 and CD44v6 levels at the plasma membrane were assessed by flow cytometry (A-D). The plasma membrane and total TrkA and CD44v3 levels were also quantified by confocal microscopy (E-H). […] The CD44v3/NGF interaction was evaluated using microscale thermophoresis (MST). […]

[2] = system: CD44v3 (CD44v3-His, whole cell extracts of COS-7 cells expressing CD44v3); experiment: MST binding of NGF, TrkA or FGF to CD44v3; settings: whole cell extracts of COS-7 expressing CD44v3, NGF alone, TrkA alone or FGF control
Method: MST was conducted using an NT.115 A Pico MST instrument (Nano Temper Technologies GmbH) equipped with red and blue filter sets. The TrkA-His tagged extracellular domain protein (Ala 34-Gly423) (9966-TK-050; R&D Systems, United Kingdom), diluted to 200 nM in PBS-T buffer (supplied by the vendor), was labeled using a Monolith His-Tag Labeling Kit with RED-Tris-NTA (Nano Temper). The RED-Tris-NTA dye was diluted in PBS-T to 100 nM. The mix was incubated at RT in the dark for 30 min. Next, an extract expressing CD44v3-labeled protein (CD44v3-His) and ligand and/or TrkA was mixed at a 1:1 ratio and incubated at RT in the dark for 15 min. For the binding check, peptides and TrkA-His were used. Capillaries were filled individually and loaded into the instrument. The data were acquired using high MST power and 100% LED. The data were analyzed using MO Control Software (Nano Temper).
Fig. 1 The C-terminal region of CD44 variant 3 binds to TrkA. A Schematic representation of the CD44 gene and protein structure. Alternative splicing leads to the expression of CD44 variants, thus the insertion of exon 8 leads to the expression of a CD44 protein containing variant 3 (CD44v3) and the insertion of exon 11 leads to the expression of a CD44 containing variant 6 (CD44v6) (B) TrkA/CD44v3 complex formation in COS-7 cells expressing TrkA and CD44v3 was detected by the proximity ligation assay (PLA), which was performed 0, 5 and 30 min after the initiation of NGF (100 ng/ml) treatment. The images represent signals detected by PLA. Quantification of the red spots was performed by ImageJ software (30 randomly chosen fields per condition of three different experiments). Statistical analyses were performed using one-way ANOVA followed by Bonferroni’s posttest. Error bars represent the standard error of the mean (S.E.M.); *** p < 0.001. ns, nonsignificant. C NGF and/or TrkA binding to CD44v3 was measured by microscale thermophoresis (MST). MST experiments were performed on whole cell extracts of COS-7 cells expressing CD44v3. […]

“NGF: recombinant human β-NGF (Alomone Labs, Israel)” was tested, and the “increase of plasma membrane CD44v3” value ([1]; CD44v3-APC, histogram with No stim., NGF (5 min), NGF (30 min)) was 33%, the “plasma membrane level of CD44v3 (in words)” value ([1]; NGF stimulation) was “increased the plasma membrane level of CD44v3” and the “binding to CD44v3 (in words)” value [2] was “No binding; also recorded: NGF did not bind to CD44v3; also recorded: NGF does not bind to CD44v3”.
